From US6077872A (priority 1998, dated 2000)
Where two headings read alike, the source gives them in different places.

Assays:
[1] = Pharmacokinetic test: enhancement of serum Ca level in rats after single oral (stomach) administration; details: rat; for enhancement of serum Ca level: 200 mg calcium/kg oral; for AUC / Cmax / Tmax / half-life: in vivo, po, 200 mg/kg
Text: (2) apparatus: Model WFX-1B Spectrophotometer of Atomic Absorption was produced by The Second Optical Apparatus Factory of Beijing, 83114; P-E 3030 Spectrophotometer of Atomic Absorption was produced by Perkin-Elmer Corp.,USA;DT-100 Single-Pan Balance (1/10^4) was produced by Beijing Optical Apparatus Factory; TJ-6 Centrifuge was produced by Beckman, USA; Model MVS-1 Vortex Mixer was produced by Beijing Beide Scientific Apparatus and Materials Co. Ltd.
Twelve hours after the animals had been fasted, 0.5 mL plasma was sampled by excising eyeballs. The plasma was established as the blank group. Then rats were administered agents once in an amount of 20 mL/kg body weight by pouring into the stomach. 0.5 mL plasma was sampled by taking from eyeballs 0.25,0.5,1,1.5,2,3,4,6,8,12 and 16 hours later after the administration. […] The concentration of calcium was measured by a Model WFX-1B Spectrophotometer of Atomic Absorption.

[2] = test system: preschool children; details: for bone mineral density: before test 0.379 (threonate), 0.369 (carbonate)
Description: Seventy 3-6 years old healthy children whose bone mineral density were medium-lower at a central kindergarten in the suburban county of Beijing were selected as subjects, wherein there are 13 boys and 57 girls. All were healthy children who didn't have any metabolic diseases, liver or kidney diseases, bone wounds and abnormal diseases.
Double blind method was employed during the observation. Every person was administered calcium preparation or placebo twice a day in a dosage of 1 bag each time. […] Group IV, established as blank-control group, was administered placebo which didn't contain calcium. All the above oral preparations were provided by Beijing Juneng Asian-Pacific Life Science Research Center.
(1) Bone mineral density was measured before the test and 1.5 months and 3 months later after the administration of Ca supplements.
The bone mineral density of radius in non-preferred hand was measured at the 1/3 point near the farther-end by a Model BMD400 Single-Photon absorptiometry produced conjointly by Institute of Atomic Energy, Ministry of Nuclear Industry, China and Institute of Broadcasting, Beijing, to obtain mean mineral bone density (BMD, g/cm^2). Each point was scanned twice with a scanning speed of 0.5 mm/sec.
All data was analyzed with a SAS statistical software package.

[3] = test system: rickets-babies; details: for craniomalacia, babies with symptom after the beginning of test: before test 3 (threonate), 4 (carbonate); for pillow-bald, babies with symptom after the beginning of test: before test 9 (threonate), 9 (carbonate); for night-sweat, babies with symptom after the beginning of test: before test 12 (threonate), 13 (carbonate)
Description: Fourty rickets-babies at the age of 3-10 months were randomly divided into 2 groups of 20 babies each. […] Test group II, namely the calcium carbonate group, were administered orally calcium carbonate twice a day in a dosage of one bag each time. Each bag of the two kind of calcium preparations contained the same amount of element calcium, namely 150 mg element calcium.
(1) Clinic symptoms mainly included the normal symptoms of rickets-babies such as night-sweat, pillow-bald, craniomalacia, etc.

[4] = test system: rickets-babies
Description: Fourty rickets-babies at the age of 3-10 months were randomly divided into 2 groups of 20 babies each. […] Test group II, namely the calcium carbonate group, were administered orally calcium carbonate twice a day in a dosage of one bag each time.
(2) Biochemical examinations of blood. Venous blood of rickets-baby was sampled before and after the beginning of test and serum Ca, P and AKP level were measured and the product of [Ca]×[P] was calculated.
(3) Data processing: All data was statistically analyzed using the method of direct calculation of probability, grouping t-test and pairing t-test.
Considering the difficulty in sampling blood from rickets-babies during the test operation, blood sampling was not performed at the second week after the beginning of the test. Blood sampling was only performed before the test and at the fourth week after the beginning of the test.

[5] = test system: osteoporosis; details: oral administration; Recker et al 1977; cited from earlier work
[6] = test system: rickets-mice; assay: Preventing rickets in younger mice: serum Ca, AKP, P; assay type: in vivo, mice of Kunming species; details: 300 mg calcium element, 60 days
Description: (§1) The mice were bred for 60 days under conditions of avoiding light around-the-clock, at a temperature of 20-25° C. and a relative humility of 40-60% while the normal-control group mice were fed ordinary diet and water and were placed in non-dark room.
(§2) The low-calcium diet used in this test was the same as that in Test II but VD in the vitamin mixture was replaced by glucose.
(§3) Some weanling mice were placed in dark room and fed VD -deficient low-calcium diet and drunk de-ionized water for 60 days, thus a ricket model of baby mice was prepared. While other weanling mice were placed in non-dark room and fed ordinary diet and drunk tap water for 60 days, these mice were established as normal-control group.

[7] = test system: rickets-mice; assay: Preventing rickets in younger mice: body weight, dry weight, ash weight and total calcium content of femur; assay type: in vivo, mice of Kunming species; details: 300 mg calcium element
Description: as §1, §2, §3

[8] = test system: rickets-mice; assay: Preventing rickets in younger mice: tibia strength (three-point bending); assay type: in vivo, mice of Kunming species
Description: as §1, §2, §3

[9] = 2 bags/day of 150 mg element calcium, 1.5 months
[10] = after four weeks of Ca-supplementing

Compound: O=C(O)O [calcium carbonate]
- enhancement of serum Ca level ([1]; 0.25 hrs): 11.1 µg/mL
- enhancement of serum Ca level ([1]; 0.5 hrs): 24.7 µg/mL
- enhancement of serum Ca level ([1]; 1 hrs): 21.4 µg/mL
- enhancement of serum Ca level ([1]; 1.5 hrs): 17.1 µg/mL
- enhancement of serum Ca level ([1]; 2 hrs): 13.2 µg/mL
- enhancement of serum Ca level ([1]; 3 hrs): 10.9 µg/mL
- enhancement of serum Ca level ([1]; 4 hrs): 5.7 µg/mL
- enhancement of serum Ca level ([1]; 6 hrs): 0.2 µg/mL
- enhancement of serum Ca level ([1]; 8 hrs): -1.4 µg/mL
- AUC [1]: 40400 ng·h/mL
- Cmax [1]: 31100 ng/mL
- Tmax [1]: 39.6 min
- half-life [1]: 20.4 min
- bone mineral density ([2]; 2 bags/day of 150 mg element calcium, 1.5 month): 0.385 ± 0.028 g/cm^2
- extent of BMDs' increase [2, 9]: 4.37%
- percentage of children whose BMDs reached the normal range [2, 9]: 0%
- bone mineral density ([2]; 2 bags/day of 150 mg element calcium, 3 month): 0.412 ± 0.020 g/cm^2
- extent of BMDs' increase ([2]; 2 bags/day of 150 mg element calcium, 3 months): 11.65%
- BMD comparison between groups (in words) ([2]; in vivo): markedly higher than those of the blank-control group only in 3 months
- total symptom improvement ([3]; four weeks): 57.6%
- craniomalacia, babies with symptom after the beginning of test ([3]; four weeks): 3
- pillow-bald, babies with symptom after the beginning of test ([3]; four weeks): 5
- night-sweat, babies with symptom after the beginning of test ([3]; four weeks): 3
- total symptom improvement ([3]; two weeks): 11.5%
- rickets-babies free of symptoms ([3]; two weeks of administration (concluding text)): 50%
- craniomalacia, babies with symptom after the beginning of test ([3]; two weeks): 4
- pillow-bald, babies with symptom after the beginning of test ([3]; two weeks): 9
- night-sweat, babies with symptom after the beginning of test ([3]; two weeks): 10
- percentage of babies whose AKP reached the normal range [4, 10]: 30%
- percentage of babies whose [Ca] × [P] reached the normal range [4, 10]: 70%
- percentage of babies whose serum P reached the normal range [4, 10]: 60%
- serum Ca change (in words) ([4]; before and after the test, P>0.05): no significant variation
- serum P ([4]; four weeks after, before 3.19 ± 0.25 (threonate), 3.12 ± 0.20 (carbonate)): 3.90 ± 0.52
- serum Ca ([4]; four weeks after, before 10.49 ± 0.39 (threonate), 10.51 ± 0.47 (carbonate)): 10.55 ± 0.42
- [Ca] × [P] ([4]; four weeks after, before 33.4 ± 2.47 (threonate), 33.83 ± 2.17 (carbonate)): 43.19 ± 5.22
- AKP ([4]; four weeks after, before 235.95 ± 7.89 (threonate), 235.25 ± 7.37 (carbonate)): 225.25 ± 22.93
- effectiveness for preventing osteoporosis [5]: not effective for preventing osteoporosis

Compound: CC(=O)O [calcium acetate]
- AUC [1]: 28200 ng·h/mL
- Cmax [1]: 24900 ng/mL
- Tmax [1]: 36.6 min

Compound: O=C(O)[C@H](O)[C@@H](O)[C@H](O)[C@H](O)CO [calcium gluconate, reference compound]
- AUC [1]: 138000 ng·h/mL
- Cmax [1]: 32100 ng/mL
- Tmax [1]: 26.4 min
- half-life [1]: 160 min
- serum Ca ([6]; model 1.55 ± 0.42): 2.37 ± 0.97 mmol/L
- serum P ([6]; model 2.23 ± 0.52): 1.71 ± 0.45 mmol/L
- serum AKP (in Bessey-Loury unit) ([6]; model 101 ± 34): 46.6 ± 13 U/L
- dry weight of femur ([7]; model 0.099 ± 0.014): 0.122 ± 0.019 g
- total calcium content ([7]; model 24.81 ± 4.36): 30.23 ± 5.23 mg
- ash weight ([7]; model 46.62 ± 9.38): 70.76 ± 10.18 mg
- breaking force (tibia) ([8]; 300 mg calcium element, model 1.12 ± 0.37): 1.54 ± 0.35 kg
- breaking force of tibia (in words) ([8]; mouse, in vivo): significantly higher than those for the model group and were comparable with those for the normal-control group
